Assay results reported in ChEMBL document CHEMBL1201862, “PubChem BioAssay data set” (2004).
Calls of active or inactive are those of the source.

Experiments:
[1] = molecular target: Neurotensin receptor type 1 (Homo sapiens, UniProt P30989); assay type: functional;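 further: Image-based confirmatory dose-response assay measuring agonist activity at NTR1; NTR1-expressing U2OS osteosarcoma cells imaged for beta-arrestin GFP spot formation; agonist potency where compounds increase beta-arrestin recruitment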
Chain of Neurotensin receptor type 1 (P30989 whole entry): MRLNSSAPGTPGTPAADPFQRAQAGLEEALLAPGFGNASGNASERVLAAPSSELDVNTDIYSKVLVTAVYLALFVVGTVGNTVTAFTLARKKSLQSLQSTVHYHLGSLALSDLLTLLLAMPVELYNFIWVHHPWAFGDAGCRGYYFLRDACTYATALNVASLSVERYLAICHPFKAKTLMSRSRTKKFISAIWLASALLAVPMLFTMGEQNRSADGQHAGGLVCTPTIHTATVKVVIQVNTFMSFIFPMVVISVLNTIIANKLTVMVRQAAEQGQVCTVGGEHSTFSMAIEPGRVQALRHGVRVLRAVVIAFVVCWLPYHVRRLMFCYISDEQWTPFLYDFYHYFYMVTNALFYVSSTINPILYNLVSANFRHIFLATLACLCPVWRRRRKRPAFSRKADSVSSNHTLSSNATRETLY

[2] = Cytotoxicity screening for potential Inhibitors of Bacterial Capsule Biogenesis. [Related pubchem assays (depositor defined):AID488970]; assay type: functional
[3] = molecular target: T1, Ubiquitin-conjugating enzyme E2 N (Homo sapiens, UniProt P61088); assay type: functional;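 further: Dose-response confirmation in a TR-FRET assay detecting UBC13-driven polyubiquitin chain formation, inhibition measured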
T1 sequence (P61088 whole entry): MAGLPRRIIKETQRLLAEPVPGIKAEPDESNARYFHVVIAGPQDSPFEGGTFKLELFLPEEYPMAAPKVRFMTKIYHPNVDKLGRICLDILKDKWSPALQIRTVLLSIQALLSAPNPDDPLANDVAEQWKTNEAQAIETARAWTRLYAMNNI

[4] = molecular target: G-protein coupled receptor 55 (Homo sapiens, UniProt Q9Y2T6); experiment: selective activators of receptor GPR55 – imaging, U2OS cells, beta-arrestin-GFP redistribution, primary screen (AID 1961); assay type: functional
Chain of G-protein coupled receptor 55 (Q9Y2T6 whole entry): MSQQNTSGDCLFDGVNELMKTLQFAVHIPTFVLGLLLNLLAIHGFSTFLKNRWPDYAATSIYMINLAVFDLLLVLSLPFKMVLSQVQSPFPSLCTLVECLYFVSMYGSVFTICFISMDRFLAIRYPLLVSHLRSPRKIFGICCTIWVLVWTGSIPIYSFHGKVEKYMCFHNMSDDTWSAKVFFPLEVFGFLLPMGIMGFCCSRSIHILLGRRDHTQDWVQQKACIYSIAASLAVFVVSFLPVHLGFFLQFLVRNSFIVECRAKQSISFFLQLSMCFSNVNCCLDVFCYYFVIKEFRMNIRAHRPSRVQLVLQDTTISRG

[5] = system: HEK293; experiment: cells; conditions: Homo sapiens;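 further: cells exposed to compound for 14 hours overnight before viability readout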
[6] = molecular target: Nucleotide-binding oligomerization domain-containing protein 2 (Homo sapiens, UniProt Q9HC29); experiment: PubChem AID 2334; assay type: functional
Chain of Nucleotide-binding oligomerization domain-containing protein 2 (Q9HC29 whole entry, the tested form may be a part): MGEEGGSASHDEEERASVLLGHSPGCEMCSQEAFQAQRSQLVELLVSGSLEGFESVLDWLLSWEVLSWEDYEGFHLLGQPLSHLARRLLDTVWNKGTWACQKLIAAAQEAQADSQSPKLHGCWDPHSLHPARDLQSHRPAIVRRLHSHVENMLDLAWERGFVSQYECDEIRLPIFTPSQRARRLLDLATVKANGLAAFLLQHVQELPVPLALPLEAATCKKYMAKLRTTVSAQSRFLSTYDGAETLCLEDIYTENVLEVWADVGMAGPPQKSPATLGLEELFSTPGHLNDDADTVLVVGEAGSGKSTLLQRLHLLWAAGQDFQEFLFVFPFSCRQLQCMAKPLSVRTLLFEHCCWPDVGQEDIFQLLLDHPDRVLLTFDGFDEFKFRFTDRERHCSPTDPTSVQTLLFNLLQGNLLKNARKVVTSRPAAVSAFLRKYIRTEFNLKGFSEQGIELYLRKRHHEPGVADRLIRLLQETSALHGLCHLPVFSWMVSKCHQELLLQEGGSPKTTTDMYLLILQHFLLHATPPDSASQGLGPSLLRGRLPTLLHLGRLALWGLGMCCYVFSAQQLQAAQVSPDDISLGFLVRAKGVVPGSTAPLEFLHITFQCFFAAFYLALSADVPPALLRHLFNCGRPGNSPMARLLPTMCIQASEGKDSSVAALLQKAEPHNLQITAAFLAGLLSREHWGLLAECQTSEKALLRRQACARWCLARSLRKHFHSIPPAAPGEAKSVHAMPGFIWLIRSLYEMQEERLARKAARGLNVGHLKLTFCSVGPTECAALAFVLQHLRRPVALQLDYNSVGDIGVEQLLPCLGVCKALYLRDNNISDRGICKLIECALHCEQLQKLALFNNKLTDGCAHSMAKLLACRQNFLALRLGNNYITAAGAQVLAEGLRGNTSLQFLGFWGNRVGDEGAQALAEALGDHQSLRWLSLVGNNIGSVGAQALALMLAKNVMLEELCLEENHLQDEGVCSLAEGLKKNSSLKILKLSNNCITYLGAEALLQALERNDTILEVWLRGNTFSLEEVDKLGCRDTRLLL

[7] = system: Streptococcus; experiment: GAS UMAA2166 growth inhibition – luminescence, BacTiterGlo, counter-screen for streptokinase expression inhibitor project, dose response (AID 1915); assay type: functional, organism-based;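 further: potency for reduction of bacterial viability or growth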
[8] = system: H9c2; experiment: cells; assay type: functional, cell-based; conditions: Rattus norvegicus, H9c2, Myocardium;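 further: confirmatory concentration-response retest of ultra-high-throughput screening hits for modulation of myocardial damage; cell death induced by hydrogen peroxide oxidative stress; compound pretreatment for 60 min then peroxide exposure for 2 h; potency is for protecting the cells against peroxide damage rather than for killing them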
[9] = molecular target: Tumor necrosis factor (Homo sapiens, UniProt P01375); experiment: analog potency on TNFa NF-kB signaling – cell-based, revised, SAR follow-up (AID 2337); assay type: functional
Chain of Tumor necrosis factor (P01375 whole entry, the tested form may be a part): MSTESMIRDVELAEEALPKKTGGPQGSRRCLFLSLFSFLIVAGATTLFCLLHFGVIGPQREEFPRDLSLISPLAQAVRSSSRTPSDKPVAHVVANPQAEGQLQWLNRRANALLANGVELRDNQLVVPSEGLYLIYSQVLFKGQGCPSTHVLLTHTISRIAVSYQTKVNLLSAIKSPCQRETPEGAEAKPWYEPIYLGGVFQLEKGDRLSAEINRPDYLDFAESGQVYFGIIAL

[10] = molecular target: Nucleotide-binding oligomerization domain-containing protein 1 (Homo sapiens, UniProt Q9Y239); experiment: blockers of NOD1 pathway activity – revised, SAR follow-up (AID 2333); assay type: functional
Chain of Nucleotide-binding oligomerization domain-containing protein 1 (Q9Y239 whole entry, the tested form may be a part): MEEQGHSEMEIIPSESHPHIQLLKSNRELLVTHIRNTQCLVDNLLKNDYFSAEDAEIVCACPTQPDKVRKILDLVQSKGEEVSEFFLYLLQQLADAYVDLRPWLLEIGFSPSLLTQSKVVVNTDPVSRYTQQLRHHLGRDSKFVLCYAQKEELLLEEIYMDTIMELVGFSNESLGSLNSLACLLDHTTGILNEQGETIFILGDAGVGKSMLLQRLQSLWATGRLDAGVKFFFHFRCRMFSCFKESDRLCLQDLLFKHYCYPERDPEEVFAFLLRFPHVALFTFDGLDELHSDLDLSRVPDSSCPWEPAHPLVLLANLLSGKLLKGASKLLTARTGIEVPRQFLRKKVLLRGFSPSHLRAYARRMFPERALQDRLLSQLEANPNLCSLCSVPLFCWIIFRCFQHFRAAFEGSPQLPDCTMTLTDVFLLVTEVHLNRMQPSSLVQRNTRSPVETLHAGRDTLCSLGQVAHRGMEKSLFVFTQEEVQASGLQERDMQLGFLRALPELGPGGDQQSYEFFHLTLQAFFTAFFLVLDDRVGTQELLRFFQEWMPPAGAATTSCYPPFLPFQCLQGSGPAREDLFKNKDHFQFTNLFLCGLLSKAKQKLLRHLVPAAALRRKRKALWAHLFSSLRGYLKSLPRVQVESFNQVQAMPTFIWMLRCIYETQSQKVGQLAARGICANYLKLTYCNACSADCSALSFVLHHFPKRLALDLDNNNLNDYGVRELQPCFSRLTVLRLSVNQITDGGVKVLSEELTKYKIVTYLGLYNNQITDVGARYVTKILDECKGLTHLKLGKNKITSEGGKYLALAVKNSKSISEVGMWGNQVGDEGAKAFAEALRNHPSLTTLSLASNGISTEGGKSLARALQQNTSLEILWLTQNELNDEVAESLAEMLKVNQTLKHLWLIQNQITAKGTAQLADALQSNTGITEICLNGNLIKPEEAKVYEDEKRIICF

[11] = system: Streptococcus sp. 'group A'; experiment: Streptococcus pyogenes SK(-)GAS viability under kanamycin – luminescence, BacTiterGlo, confirmation, counter-screen for streptokinase expression inhibitor project, dose response (AID 1900); assay type: functional, organism-based; conditions: read-out: EC50
[12] = molecular target: T2, Streptokinase A (Streptococcus pyogenes serotype M1, UniProt P10520); experiment: viability-normalized secreted streptokinase activity reduction – plasminogen activation absorbance, OD405, dose response (AID 1914); assay type: functional, Streptococcus pyogenes M1 GAS;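 further: secreted streptokinase activity via plasminogen activation per viability signal from cell pellet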
T2 sequence (P10520 whole entry): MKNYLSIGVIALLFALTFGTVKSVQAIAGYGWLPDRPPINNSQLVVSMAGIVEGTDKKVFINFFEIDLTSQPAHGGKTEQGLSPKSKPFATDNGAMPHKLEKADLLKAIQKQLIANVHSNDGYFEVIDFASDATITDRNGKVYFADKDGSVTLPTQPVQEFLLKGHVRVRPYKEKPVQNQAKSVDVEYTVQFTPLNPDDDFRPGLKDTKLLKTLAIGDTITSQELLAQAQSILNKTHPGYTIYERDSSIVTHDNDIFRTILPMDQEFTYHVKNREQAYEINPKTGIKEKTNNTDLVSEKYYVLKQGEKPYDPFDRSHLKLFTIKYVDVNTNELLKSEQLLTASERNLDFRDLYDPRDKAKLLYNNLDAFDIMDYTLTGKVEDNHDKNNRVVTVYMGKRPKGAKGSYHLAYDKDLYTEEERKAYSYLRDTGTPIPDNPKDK

## O=C(/C=C/c1ccccc1F)c1cccc([N+](=O)[O-])c1
[1]
  EC50: 15.1 µM (active)

## Cc1cc(C)c(NC(=O)C[N+](C)(C)CC(O)COc2cccc3ccccc23)c(C)c1 (configuration not stated)
[2]
  CC50: 15.6 µM (active)
[3]
  IC50: > 20 µM (inactive)

## CCN(CC)S(=O)(=O)c1ccc(OC)c(NC(=O)C(C)Oc2ccc3c(C)cc(=O)oc3c2)c1 (configuration not stated)
[4]
  EC50: 16.4 µM (inactive)

## O=C(Nc1nc2ccccc2n1Cc1ccccc1)c1ccco1
[5]
  IC50: > 20 µM (inactive)
[6]
  IC50: > 20 µM (inactive)
[7]
  EC50: > 150 µM (not active)
[8]
  IC50: > 79 µM (inactive)
[9]
  IC50: > 20 µM (inactive)
[10]
  IC50: > 20 µM (inactive)
[11]
  EC50: 3.48 µM (active)
[12]
  EC50: > 150 µM (not active)
